Measurements: ChEMBL document CHEMBL1159253, “Two new cytotoxic monotetrahydrofuran Annonaceous acetogenins, annomuricins A and B, from the leaves of Annona muricata” (J Nat Prod, 1995)
≈ marks a conversion by molar mass, not a printed value.

Experiments:
HT-29 = experiment: Cytotoxicity against human HT-29 cells after 7 days by MTT assay; type: functional; settings: HT-29, 168 h, read-out: ED50 (the source's name)
MCF7 = experiment: Cytotoxicity against human MCF7 cells after 7 days by MTT assay; type: functional; settings: for EC50: Homo sapiens, MCF7, 168 h, read-out: ED50 (the source's name)
A549 = experiment: Cytotoxicity against human A549 cells after 7 days by MTT assay; type: functional; settings: for EC50: Homo sapiens, A549, 168 h, read-out: ED50 (the source's name)
[1] = Toxicity against brine shrimp; type: organism-based; settings: artemia, in vivo

`CCCCCCCCCCCC[C@H](O)[C@H]1CC[C@H]([C@H](O)CCC[C@H]2OC(C)(C)O[C@@H]2CCCCC[C@@H](O)CC2=C[C@H](C)OC2=O)O1` gave an EC50 (HT-29) of over 1 µg/mL, an ED50 (MCF7) of 2.78 ×10⁻⁴ ug/ml and an ED50 (A549) of 1.58 ×10⁻⁴ ug/ml. For the same compound, the LC50 [1] was 0.131 µg/mL (≈ 0.201 µM).

`CCCCCCCCCCCC[C@H](O)[C@H]1CC[C@H]([C@H](O)CCC[C@@H]2OC(C)(C)O[C@@H]2CCCCC[C@@H](O)CC2=C[C@H](C)OC2=O)O1` gave an EC50 (HT-29) of 0.0933 µg/mL (≈ 0.143 µM), an ED50 (MCF7) of 1.41 ×10⁻⁴ ug/ml and an ED50 (A549) of 3.41 ×10⁻⁴ ug/ml. For the same compound, the LC50 [1] was 0.18 µg/mL (≈ 0.276 µM).

With `CCCCCCCCCCCC[C@H](O)[C@H]1CC[C@H]([C@H](O)CCC[C@@H](O)[C@H](O)CCCCC[C@@H](O)CC2=C[C@H](C)OC2=O)O1` [ANNOMURICIN A] the EC50 (HT-29) was over 1 µg/mL, the EC50 (MCF7) was over 1 µg/mL and the EC50 (A549) was 0.33 µg/mL (≈ 0.538 µM). It also gave an LC50 [1] of 0.625 µg/mL (≈ 1.02 µM).

`CCCCCCCCCCCC[C@H](O)[C@H]1CC[C@H]([C@H](O)CCC[C@H](O)[C@H](O)CCCCC[C@@H](O)CC2=C[C@H](C)OC2=O)O1` [ANNOMURICIN B] showed an EC50 (HT-29) of 0.435 µg/mL (≈ 0.71 µM), an EC50 (MCF7) of over 1 µg/mL and an EC50 (A549) of 0.159 µg/mL (≈ 0.259 µM). For the same compound, the LC50 [1] was 0.687 µg/mL (≈ 1.12 µM).

With `COc1cccc2c1C(=O)c1c(O)c3c(c(O)c1C2=O)C[C@@](O)(C(=O)CO)C[C@@H]3O[C@H]1C[C@H](N)[C@H](O)[C@H](C)O1` [DOXORUBICIN] the EC50 (HT-29) was 0.0275 µg/mL (≈ 0.0506 µM), the EC50 (MCF7) was 0.126 µg/mL (≈ 0.232 µM) and the EC50 (A549) was 0.0101 µg/mL (≈ 0.0186 µM).
